Measured values: US20080075695A1, “COMBINATION THERAPY METHOD FOR TREATING HEPATITIS C VIRUS INFECTION AND PHARMACEUTICAL COMPOSITIONS FOR USE THEREIN” (priority 2006, published 2008)

Columns and labels:
[1] = molecular target: T1, HCV NS5B protein (genotype 1b, BB7) (Hepatitis C virus genotype 1b, UniProt Q9WMX2); test: Inhibition of viral RNA-dependent RNA polymerase (RdRp); format: biochemical; settings: purified HCV NS5B, C-terminal 21 amino acids removed
T1 construct: of which the carboxyl terminal 21 amino acids were removed to enhance its solubility; made in house; host or cells: E. coli
Source text: The HCV NS5B-directed RdRp activity was established and characterized in a standard in vitro biochemical assay using a purified HCV NS5B protein derived from the consensus sequence of a patient infected with HCV genotype 1b virus (BB7). (See Blight K J et al., Science. 2000, 290:1972-4). The NS5B consensus sequence was cloned and expressed in E. coli as a histidine tagged ([…]) fusion protein, of which the carboxyl terminal 21 amino acids were removed to enhance its solubility.
In addition to evaluating its activity in the replicon assay, as described above, the BZF of Example 1 was also evaluated for antiviral activity using this assay.

[2] = test system: HCV; test: Phase 1b clinical trial (MAD study), plasma HCV RNA; format: in vivo, human; settings: for MEAN Δ change from baseline (log HCV RNA level): on-therapy analysis
Source text: A 14 day randomized, double-blind, placebo-controlled, sequential-group study of multiple ascending doses (MAD) included subjects with chronic HCV infection who were naïve to treatment. Subjects were enrolled in sequential, ascending dose cohorts with a target of 16 subjects (12 subjects receiving the BZF and 4 receiving placebo in each cohort). The first cohorts assessed the effect of the BZF as monotherapy compared to placebo. Subsequent cohorts were comprised of subjects who received pegylated interferon alfa-2b (PEG-Intron; 1.5 μg/kg/dose) administered subcutaneously on days −1 and 7 in combination with either placebo or the BZF administered orally (100 mg, 250 mg, 500 mg or 1000 mg every 12 hours, in combinations of 25 mg or 200 mg capsules) from days 1 to 14. […] The mean viral load for each treatment group at study entry was >6.0 log 10 UI/ml HCV RNA.

[3] = Day 14, BZF 100 mg, all genotypes
[4] = Day 14, BZF 250 mg, all genotypes
[5] = Day 14, BZF 500 mg, all genotypes
[6] = Day 14, BZF 1000 mg, all genotypes

CNC(=O)c1c(-c2ccc(F)cc2)oc2cc(N(CCO)S(C)(=O)=O)c(C3CC3)cc12 [BZF, 5-cyclopropyl-2-(4-fluoro-phenyl)-6-[(2-hydroxy-ethyl)-methanesulfonyl-amino]-benzofuran-3-carboxylic acid methylamide]
< 500 nM: IC50 [1]
−1.30 log: MEAN Δ change from baseline (log HCV RNA level) ([2]; Day 7, BZF 500 mg every 12 hours, all genotypes)
1 (13%): % Subjects with ≧1.5 log ↓ in log10 HCV RNA ([2]; Day 14, BZF 500 mg, genotype 1) | % Subjects with ≧2 log ↓ in log10 HCV RNA ([2]; Day 14, BZF 500 mg, genotype 1)
1 (8%): % Subjects with ≧1.5 log ↓ in log10 HCV RNA [2, 5] | % Subjects with ≧2 log ↓ in log10 HCV RNA [2, 5] | % Subjects with ≧3 log ↓ in log10 HCV RNA [2, 6]
−0.64 log: MEAN Δ change from baseline (log HCV RNA level) ([2]; Day 14, BZF 500 mg every 12 hours, all genotypes)
2 (17%): % Subjects with ≧1.5 log ↓ in log10 HCV RNA [2, 3] | % Subjects with ≧1.5 log ↓ in log10 HCV RNA [2, 6] | % Subjects with ≧2 log ↓ in log10 HCV RNA [2, 6]
−1.43 log: MEAN Δ change from baseline (log HCV RNA level) ([2]; Day 4, BZF 500 mg every 12 hours, all genotypes)
0%: % Subjects BQL (below quantification limits, <50 IU/mL) [2, 3] | % Subjects with ≧2 log ↓ in log10 HCV RNA [2, 3] | % Subjects with ≧3 log ↓ in log10 HCV RNA [2, 3] | % Subjects BQL (below quantification limits, <50 IU/mL) [2, 4] | % Subjects with ≧1.5 log ↓ in log10 HCV RNA [2, 4] | % Subjects with ≧2 log ↓ in log10 HCV RNA [2, 4] | % Subjects with ≧3 log ↓ in log10 HCV RNA [2, 4] | % Subjects BQL (below quantification limits, <50 IU/mL) [2, 5] | % Subjects with ≧3 log ↓ in log10 HCV RNA [2, 5] | % Subjects BQL (below quantification limits, <50 IU/mL) ([2]; Day 14, BZF 500 mg, genotype 1) | % Subjects with ≧3 log ↓ in log10 HCV RNA ([2]; Day 14, BZF 500 mg, genotype 1) | % Subjects BQL (below quantification limits, <50 IU/mL) [2, 6]
